Measurements from paper PMC12084297, “Cytoplasmic connexin43-microtubule interactions promote glioblastoma stem-like cell maintenance and tumorigenicity” (Cell Death & Disease, 2025).

Legend:
α-tubulin = assay: Cellular thermal shift assay (CETSA), α-tubulin target engagement; type: binding, human; settings: fresh VTC-037 GSC lysates, 3-fold dilutions 222.2-2.7 nM, 1 h, heat challenge 57 °C (Tagg(75)) 20 min, immunoblot, normalized to DMSO control
Protocol: (§1) For an initial determination of the melting profile of α- and β- tubulin, fresh lysates of GSCs prepared in non-denaturing buffer were dispensed into 96-well PCR plate in stem cell medium (approximately 10,000 cells/well/50 µl), and then subjected to temperature gradient (37–65 °C) for 20 min. Subsequently, centrifugation was performed at 14,000 rpm to sediment the unstable protein content. Supernatant was collected and SDS-PAGE gel was run, and immunodetection was performed to detect α- and β- tubulin using specific primary antibodies described above. A rabbit antibody against β-actin (Cell Signaling Technology; 4970) was used as negative control. Band intensities were quantified on LI-COR C-DiGit Blot Scanner, and subsequently Tagg(50) and Tagg(75) values were calculated for α- and β- tubulin. In a subsequent run, fresh lysates of GSCs were treated at various doses with 3-fold dilutions (222.2, 74.0, 24.7, 8.2 and 2.7 nM) of peptides JM2 and JM2-scrambled, together with DMSO as control, for 1 h. Samples were then subjected to heat challenge at 57 °C for 20 min, and unstable protein was removed by centrifugation step. Following an immunoblotting step, band intensities of the stable tubulin was quantified, and normalized to DMSO control. EC50 values of engagement for both peptide with α- and β- tubulin were subsequently calculated.

β-tubulin = assay: Cellular thermal shift assay (CETSA), β-tubulin target engagement; type: binding, human; settings: fresh VTC-037 GSC lysates, 3-fold dilutions 222.2-2.7 nM, 1 h, heat challenge 57 °C (Tagg(75)) 20 min, immunoblot, normalized to DMSO control
Protocol: as §1

β-actin = biological target: T1, β-actin (Homo sapiens, UniProt P60709); assay: Cellular thermal shift assay (CETSA), actin negative control; type: binding; settings: VTC-037 GSC lysates, 57 °C, β-actin as negative control
T1 construct: fresh lysates of GSCs prepared in non-denaturing buffer; endogenous in cells; host or cells: VTC-037 patient-derived glioblastoma stem-like cells (lysate)
Protocol: as §1

VTC-034 GSCs = assay: Caspase 3/7 activity, VTC-034 GSCs; type: cell-based, human; settings: VTC-034 adherent GSCs, 10, 50 or 100 μM, 48 h, Caspase-Glo 3/7
Protocol: Cells were plated in 96-well plates (2000–5000 cells per well) and treated the following day with TMZ (10, 50, or 100 μM), antennapedia, JM2-scrambled, or JM2 (10, 50, or 100 μM). After 4 days, cell viability was monitored following addition of MTS reagent (Promega) according to manufacturer’s instructions. The absorbance at 490 nm was measured using a SpectraMax i3 or iD3 microplate reader (Molecular Devices). For the caspase 3/7 activity assay, cells were plated in 96-well plates (2000 cells per well) and treated with TMZ or peptides as described above. The activity of caspase 3/7 was measured after 48 h using the Caspase-Glo® 3/7 assay (Promega) following the manufacturer’s instructions. Fold change of caspase 3/7 activity was defined as the ratio of caspase 3/7 luminescence in treated cells compared to controls.

PDX GBM22 tumor [1] = assay: PDX GBM22 tumor growth in mouse flank; type: in vivo, mouse (athymic nude), human GBM22 cells; settings: 300 μM intratumorally every day for 14 days, n = 7 mice per group
Protocol: Animal studies were approved by the Institutional Animal Care and Use Committee (IACUC) of Virginia Tech. Female athymic nude mice (Envigo) aged 6-8 weeks were used for the maintenance and propagation of PDX GBM22 cells. PDX GBM22 tumors were maintained by serial passage in nude mouse flanks as described previously. Briefly, tumors were harvested 14–18 days post-injection and glioblastoma cells were mechanically and enzymatically dissociated. […] After 2 days, tumors were measured and mice were randomly separated into three groups (7 mice per group), and vehicle/control (PBS), JM2-scrambled or JM2 were administered at 300 μM intratumorally every day for 14 days. Tumors were then measured by blinded investigators and harvested for analysis (see section below). Tumor volume was calculated using the formula (length × width^2)/2. […] After 7 days, tumors were measured and mice were randomly separated into three groups; vehicle/control (PBS), JM2-scrambled, and JM2 (3 mice per group). […] Tumor sizes were measured by electronic calipers at different times by blinded investigators, and tumor volume was calculated using the formula (length × width^2)/2.

PDX GBM22 tumor [2] = assay: TUNEL and H&E of GBM22-derived tumor sections; type: in vivo, mouse (athymic nude), human GBM22 cells; settings: GBM22 tumors, 300 μM intratumorally every day for 14 days, harvested after 16 days
Protocol: Tumors were harvested, snap-frozen in Tissue-Tek® O.C.T. compound (Sakura), and stored at −80 °C until sectioning. […] sections were cut using a Leica CM1850 UV cryostat, placed onto Superfrost Plus^TM slides (Fisher Scientific) and fixed in −20 °C acetone for 5 minutes before air drying. Slides were stored at −80 °C prior to labeling. Tumors sections were then rehydrated in PBS for 5 min, permeabilized in 0.1% Triton X-100 in PBS for 1 h at room temperature, and washed four times with PBS (2 x quick, 2 × 5 min) prior to incubating with streptavidin conjugated to Alexa Fluor 647 (Thermo Fisher) diluted in high-salt buffer (0.5 M NaCl, 10 mM Hepes) for 30 min at room temperature. Tumor sections were then washed four times with high-salt buffer (2 x quick, 2 × 10 min), and twice with PBS (2 × 5 min) before using One-step TUNEL In Situ Apoptosis kit (Green Elab Fluor® 488; Elabscience), according to manufacturer’s instructions. Tumor sections were then washed in PBS (3 × 5 min), incubated with DAPI (Thermo Fisher) in PBS for 5 min, and washed again with PBS (4 × 5 min) before the slides were mounted using Prolong Gold Antifade (Thermo Fisher). GBM22-derived tumor sections were analyzed using fluorescence confocal microscopy on a Nikon NIE upright confocal microscope, while LN229/GSC-derived tumor sections were observed using LED illumination microscopy on a Revolve microscope. For hematoxylin and eosin (H&E) staining, tumor sections were stained using a Histo-Tek® SL Slide Stainer (Sakura), and observed using phase contrast microscopy on a Revolve microscope. Investigators were blinded for all image acquisition experiments.

Sequence	EC50 (α-tubulin) [nM]	EC50 (β-tubulin) [nM]	EC50 target engagement, actin (negative control) (β-actin)	Apoptosis induction (caspase 3/7 activity) (VTC-034 GSCs)	GBM22-derived tumor growth (PDX GBM22 tumor [1])	Cell death in tumor sections (TUNEL) (PDX GBM22 tumor [2])	Cell death in tumor sections (H&E) (PDX GBM22 tumor [2])
GSDVFKRKFVDRKVG [JM2-scrambled, reference compound]	> 200	> 200	no EC50 was detected	inefficient in inducing apoptosis	observed GBM22-derived tumor formation	no significant correlation was observed	–
VFFKGVKDRVKGRSD [JM2]	8.4	7.9	no EC50 was detected	increased caspase 3/7 activity in these cells in a dose-dependent manner	did not detect any significant tumor growth	Positive JM2 signal within the tumors correlated with an increase in cell death	Increased cell death within JM2-treated tumors was further confirmed
